Source: patent US10125098B2, “Therapeutic compounds and methods of use thereof” (GENENTECH, INC., priority 2014, dated 2018)
Like-named read-outs stand apart in the source and are kept apart here.

Legend:
hNav1.7 = target: T1, hNav1.7 (Homo sapiens, UniProt Q15858); assay: Tritiated compound binding (LBA) to membranes from cells expressing hNav1.7 and the β1 subunit, competitive binding; details: competitive binding vs 100 pM [3H]compound, 18 h, room temperature, membranes with hNav1.7 and β1 subunit
T1 construct: expressed in transfected cells
T1 sequence (Q15858 1-1977 isoform Q15858-3): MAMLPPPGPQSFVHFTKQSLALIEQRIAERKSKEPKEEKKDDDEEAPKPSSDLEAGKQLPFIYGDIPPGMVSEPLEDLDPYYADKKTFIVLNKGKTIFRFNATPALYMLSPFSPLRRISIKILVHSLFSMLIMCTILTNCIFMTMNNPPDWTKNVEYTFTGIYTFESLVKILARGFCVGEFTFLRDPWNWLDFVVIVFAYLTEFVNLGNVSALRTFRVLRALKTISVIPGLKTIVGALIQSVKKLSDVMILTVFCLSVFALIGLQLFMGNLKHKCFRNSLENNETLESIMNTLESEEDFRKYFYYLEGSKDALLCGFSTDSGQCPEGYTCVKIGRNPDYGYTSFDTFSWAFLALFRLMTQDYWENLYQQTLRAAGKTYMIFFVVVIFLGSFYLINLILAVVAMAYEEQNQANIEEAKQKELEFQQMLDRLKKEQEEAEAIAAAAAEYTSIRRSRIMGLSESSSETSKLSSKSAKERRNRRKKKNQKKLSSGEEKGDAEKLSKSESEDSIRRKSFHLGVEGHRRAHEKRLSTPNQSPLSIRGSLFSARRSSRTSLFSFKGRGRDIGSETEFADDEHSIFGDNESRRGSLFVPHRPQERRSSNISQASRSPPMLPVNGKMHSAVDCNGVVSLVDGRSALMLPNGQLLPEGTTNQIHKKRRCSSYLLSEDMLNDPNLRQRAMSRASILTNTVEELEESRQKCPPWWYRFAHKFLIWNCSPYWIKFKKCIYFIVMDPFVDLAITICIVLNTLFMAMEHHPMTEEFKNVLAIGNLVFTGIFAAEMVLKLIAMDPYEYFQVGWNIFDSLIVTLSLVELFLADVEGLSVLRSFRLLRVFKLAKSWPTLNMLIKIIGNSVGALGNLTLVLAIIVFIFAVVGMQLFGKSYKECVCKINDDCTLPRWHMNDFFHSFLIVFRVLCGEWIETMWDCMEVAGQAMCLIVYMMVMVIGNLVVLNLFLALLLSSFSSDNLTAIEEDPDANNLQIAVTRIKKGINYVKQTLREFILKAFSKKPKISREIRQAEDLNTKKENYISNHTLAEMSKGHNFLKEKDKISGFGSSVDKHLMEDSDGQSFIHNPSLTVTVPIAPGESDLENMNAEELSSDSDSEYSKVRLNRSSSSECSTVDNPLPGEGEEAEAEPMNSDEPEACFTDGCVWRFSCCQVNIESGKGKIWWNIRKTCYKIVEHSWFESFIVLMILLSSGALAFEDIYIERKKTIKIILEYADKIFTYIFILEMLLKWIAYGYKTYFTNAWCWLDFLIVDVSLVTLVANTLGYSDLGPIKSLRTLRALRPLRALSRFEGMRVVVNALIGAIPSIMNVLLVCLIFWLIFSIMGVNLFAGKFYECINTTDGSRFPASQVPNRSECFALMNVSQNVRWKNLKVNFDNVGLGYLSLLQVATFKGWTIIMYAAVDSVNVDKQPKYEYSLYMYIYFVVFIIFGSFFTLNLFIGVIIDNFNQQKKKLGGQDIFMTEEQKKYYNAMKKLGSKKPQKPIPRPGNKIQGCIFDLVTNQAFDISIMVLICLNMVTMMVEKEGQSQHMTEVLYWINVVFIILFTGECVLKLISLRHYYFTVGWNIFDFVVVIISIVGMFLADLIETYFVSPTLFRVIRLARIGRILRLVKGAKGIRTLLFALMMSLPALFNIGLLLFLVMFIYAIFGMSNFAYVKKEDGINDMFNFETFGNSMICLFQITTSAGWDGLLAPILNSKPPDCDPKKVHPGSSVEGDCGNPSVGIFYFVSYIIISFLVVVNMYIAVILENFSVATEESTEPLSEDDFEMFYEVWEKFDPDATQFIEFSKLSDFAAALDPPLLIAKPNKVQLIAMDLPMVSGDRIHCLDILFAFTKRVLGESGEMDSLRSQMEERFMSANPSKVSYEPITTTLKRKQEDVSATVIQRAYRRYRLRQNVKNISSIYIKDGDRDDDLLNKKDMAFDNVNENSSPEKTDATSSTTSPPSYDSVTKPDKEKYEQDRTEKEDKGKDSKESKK
T1 sequence (Q07699 19-218 partner): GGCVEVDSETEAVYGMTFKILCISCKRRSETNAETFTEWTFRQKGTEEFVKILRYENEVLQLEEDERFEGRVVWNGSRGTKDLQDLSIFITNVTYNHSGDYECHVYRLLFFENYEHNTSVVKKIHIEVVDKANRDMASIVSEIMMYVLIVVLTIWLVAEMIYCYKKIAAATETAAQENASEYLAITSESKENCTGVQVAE
In short: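 Competitive displacement of 100 pM [3H]compound (tritiated methyl analogue of formula (I)) from hNav1.7/β1 membranes, 18 h at room temperature in NaCl/Tris pH 7.4 buffer containing 0.01% BSA. 1 μM unlabeled compound set non-specific binding. Bound label quantified by scintillation after filtration; 4-parameter fit gave IC50.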

human NaV1.7 = target: T2, human NaV1.7 (Homo sapiens, UniProt Q15858); assay: Patch voltage clamp electrophysiology assay (EP), NaV1.7; assay type: cell-based; details: HEK-293 cells stably expressing NaV1.7 with β1 subunit; whole-cell patch clamp, membrane potential −60 mV (inactivated state)
T2 construct: permanently transfected with an expression vector containing the full-length cDNA coding for the desired human sodium channel α-subunit; expressed in transfected cells; host or cells: HEK-293
T2 sequence (Q15858 1-1977 isoform Q15858-3): as the sequence (Q15858 1-1977 isoform Q15858-3) above
T2 sequence (Q07699 19-218 partner): as the sequence (Q07699 19-218 partner) above
In short: (§1)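 Percent block is the drop in sodium current after compound wash-on, measured by a test pulse following 20 ms at −150 mV from a −60 mV inactivating holding potential.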

NaV1.5 = target: T3, NaV1.5 (Homo sapiens, UniProt Q14524); assay: Patch voltage clamp electrophysiology assay (EP), NaV1.5; assay type: cell-based
T3 construct: permanently transfected with an expression vector containing the full-length cDNA coding for the desired human sodium channel α-subunit; expressed in transfected cells; host or cells: HEK-293
T3 sequence (Q14524 whole entry): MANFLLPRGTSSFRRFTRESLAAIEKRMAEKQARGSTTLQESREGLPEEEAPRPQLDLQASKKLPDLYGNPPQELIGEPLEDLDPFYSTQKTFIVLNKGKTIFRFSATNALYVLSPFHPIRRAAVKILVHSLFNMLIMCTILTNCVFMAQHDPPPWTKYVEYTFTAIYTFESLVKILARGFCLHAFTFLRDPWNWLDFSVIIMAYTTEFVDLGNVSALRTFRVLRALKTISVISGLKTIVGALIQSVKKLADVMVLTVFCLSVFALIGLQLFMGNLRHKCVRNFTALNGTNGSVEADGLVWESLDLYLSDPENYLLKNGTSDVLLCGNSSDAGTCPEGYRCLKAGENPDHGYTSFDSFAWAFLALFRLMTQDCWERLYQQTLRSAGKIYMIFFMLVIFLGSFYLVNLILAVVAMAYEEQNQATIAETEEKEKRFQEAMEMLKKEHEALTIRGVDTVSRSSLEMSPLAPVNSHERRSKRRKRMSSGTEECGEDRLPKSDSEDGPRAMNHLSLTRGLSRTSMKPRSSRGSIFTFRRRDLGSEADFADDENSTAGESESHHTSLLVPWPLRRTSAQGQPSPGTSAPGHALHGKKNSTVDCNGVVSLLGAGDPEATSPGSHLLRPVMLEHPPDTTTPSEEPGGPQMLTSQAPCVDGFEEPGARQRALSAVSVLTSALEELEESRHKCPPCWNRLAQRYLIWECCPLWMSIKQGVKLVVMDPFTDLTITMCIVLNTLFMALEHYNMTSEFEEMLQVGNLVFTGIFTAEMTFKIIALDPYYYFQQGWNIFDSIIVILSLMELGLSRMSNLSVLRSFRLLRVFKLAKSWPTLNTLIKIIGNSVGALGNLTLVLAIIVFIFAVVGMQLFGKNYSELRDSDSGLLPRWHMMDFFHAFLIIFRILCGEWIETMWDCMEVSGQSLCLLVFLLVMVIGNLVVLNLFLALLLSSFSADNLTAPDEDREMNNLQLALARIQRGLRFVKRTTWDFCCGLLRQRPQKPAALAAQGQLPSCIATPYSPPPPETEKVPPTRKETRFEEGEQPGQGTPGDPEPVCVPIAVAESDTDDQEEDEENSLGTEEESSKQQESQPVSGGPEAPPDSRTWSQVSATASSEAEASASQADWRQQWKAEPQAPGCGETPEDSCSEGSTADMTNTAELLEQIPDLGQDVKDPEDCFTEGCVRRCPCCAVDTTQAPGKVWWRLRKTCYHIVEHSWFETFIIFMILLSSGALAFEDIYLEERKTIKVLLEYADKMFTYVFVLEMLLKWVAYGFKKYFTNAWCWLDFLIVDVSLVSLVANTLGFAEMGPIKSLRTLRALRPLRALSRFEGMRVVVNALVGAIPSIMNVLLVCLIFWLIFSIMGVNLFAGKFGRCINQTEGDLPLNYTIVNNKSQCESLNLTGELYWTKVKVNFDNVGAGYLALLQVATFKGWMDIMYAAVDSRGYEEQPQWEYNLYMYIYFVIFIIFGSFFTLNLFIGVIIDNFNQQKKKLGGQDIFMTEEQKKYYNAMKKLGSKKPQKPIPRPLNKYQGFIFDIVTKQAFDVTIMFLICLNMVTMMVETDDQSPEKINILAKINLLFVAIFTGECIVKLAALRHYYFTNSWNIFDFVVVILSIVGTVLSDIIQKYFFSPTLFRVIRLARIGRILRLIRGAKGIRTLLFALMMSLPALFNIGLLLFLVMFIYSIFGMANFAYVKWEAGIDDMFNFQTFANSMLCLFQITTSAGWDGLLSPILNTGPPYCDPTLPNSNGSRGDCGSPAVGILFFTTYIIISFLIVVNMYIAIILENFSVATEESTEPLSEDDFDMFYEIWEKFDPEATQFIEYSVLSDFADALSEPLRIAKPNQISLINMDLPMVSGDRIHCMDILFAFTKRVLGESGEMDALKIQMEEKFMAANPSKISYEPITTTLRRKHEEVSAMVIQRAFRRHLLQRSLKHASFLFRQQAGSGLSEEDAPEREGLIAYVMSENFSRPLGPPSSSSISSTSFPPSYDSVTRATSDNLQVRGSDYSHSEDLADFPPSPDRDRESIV
In short: as §1

[1] = HEK-293 cells stably expressing NaV1.5 with β1 subunit, whole-cell patch clamp, membrane potential −60 mV (inactivated state), read-out: Nav1.5
[2] = human, HEK-293 cells stably expressing human NaV1.5 with β1 subunit, pH 7.4, HEK-293 cells stably expressing NaV1.5 with β1 subunit, whole-cell patch clamp, membrane potential −60 mV (inactivated state)

| SMILES | IC50 (hNav1.7) [µM] | IC50 (human NaV1.7) [µM] | IC50 (NaV1.5; [1]) [µM] | IC50 (NaV1.5; [2]) [µM] | IC50 (NaV1.5) [µM] |
| --- | --- | --- | --- | --- | --- |
| C[C@H]1[C@H](F)CN(C(=O)c2cc(C3CC3)c(OCC34CC5CC(CC(C5)C3)C4)cc2F)[C@@H]1C(=O)O [Example 210b, (2S,3R,4S)-1-(4-(adamantan-1-ylmethoxy)-5-cyclopropyl-2-fluorobenzoyl)-4-fluoro-3-methylpyrrolidine-2-carboxylic acid] | 0.03 | 0.81 | 17 | – | – |
| O=C(O)[C@@H]1C[C@H](C(F)(F)F)CN1C(=O)c1cc(C2CC2)c(OCC23CC4CC(CC(C4)C2)C3)cc1F [Example 211, (2S,4S)-1-(4-((adamantan-1-yl)methoxy)-5-cyclopropyl-2-fluorobenzoyl)-4-(trifluoromethyl)pyrrolidine-2-carboxylic acid] | 2.3 | 6.7 | 14 | – | – |
| O=C(c1cc(C2CC2)c(OCC23CC4CC(CC(C4)C2)C3)cc1F)N1CCC2CC21C(=O)O (stereo not drawn) [Example 212, 2-(4-((Adamantan-1-yl)methoxy)-5-cyclopropyl-2-fluorobenzoyl)-2-azabicyclo[3.1.0]hexane-1 carboxylicacid] | 0.29 | 3.5 | 17 | – | – |
| O=C(O)[C@@H]1CC(O)(C(F)(F)F)CN1C(=O)c1cc(C2CC2)c(OCC23CC4CC(CC(C4)C2)C3)cc1F (stereo partly drawn) [Example 213, (2S)-1-(4-((adamantan-1-yl)methoxy)-5-cyclopropyl-2-fluorobenzoyl)-4-hydroxy-4-(trifluoromethyl)pyrrolidine-2-carboxylic acid] | 5.3 | 3.4 | 7.6 | – | – |
| COC1(C(F)(F)F)C[C@@H](C(=O)O)N(C(=O)c2cc(C3CC3)c(OCC34CC5CC(CC(C5)C3)C4)cc2F)C1 (stereo partly drawn) [Example 214, (2S)-1-(4-((Adamantan-1-yl)methoxy)-5-cyclopropyl-2-fluorobenzoyl)-4-methoxy-4-(trifluoromethyl)pyrrolidine-2-carboxylic acid] | 9.7 | 8.2 | 11 | – | – |
| O=C(O)C[C@@H]1CCN1C(=O)c1cc(C2CC2)c(OCC23CC4CC(CC(C4)C2)C3)cc1F [Example 215, 2-((S)-1-(4-((adamantan-1-yl)methoxy)-5-cyclopropyl-2-fluorobenzoyl)azetidin-2-yl)acetic acid] | 1.1 | 5.4 | – | ≥ 30 | – |
| CC(C)[C@H](NC(=O)c1cc(C2CC2)c(OCC2(F)CCN(Cc3cc(Cl)cc(C(F)(F)F)c3)CC2)cc1F)C(=O)O [Example 216, (4-((1-(3-Chloro-5-(trifluoromethyl)benzyl)-4-fluoropiperidin-4-yl)methoxy)-5-cyclopropyl-2-fluorobenzoyl)-L-valine] | 0.6 | 8.6 | – | ≥ 30 | – |
| CC1(O)C[C@@H](C(=O)O)N(C(=O)c2cc(C3CC3)c(OCC34CC5CC(CC(C5)C3)C4)cc2F)C1 (stereo partly drawn) [Example 218, (2S)-1-(4-(adamantan-1-ylmethoxy)-5-cyclopropyl-2-fluorobenzoyl)-4-hydroxy-4-methylpyrrolidine-2-carboxylic acid] | 0.23 | 1.6 | 24 | – | – |
| C[C@@H]1[C@@H](C(=O)O)N(C(=O)c2cc(C3CC3)c(OCC34CC5CC(CC(C5)C3)C4)cc2F)C[C@@H]1F [Example 219, (2S,3R,4R)-1-(4-(adamantan-1-ylmethoxy)-5-cyclopropyl-2-fluorobenzoyl)-4-fluoro-3-methylpyrrolidine-2-carboxylic acid] | 0.0064 | 0.26 | 12 | – | – |
| O=C(O)[C@@H]1C[C@@H](F)CN1C(=O)c1cc(C2CC2)c(OCC2CCN(Cc3noc(-c4ccccc4Cl)n3)CC2)cc1F [Example 220, (2S, 4R)-1-(4-((1-((5-(2-chlorophenyl)-1,2,4-oxadiazol-3-yl)methyl)piperidin-4-yl)methoxy)-5-cyclopropyl-2-fluorobenzoyl)-4-fluoropyrrolidine-2-carboxylic acid] | 0.16 | 0.83 | – | ≥ 30 | – |
| O=C(O)[C@@H]1CC2(CC2)CN1C(=O)c1cc(C2CC2)c(OCC2(F)CCN(Cc3cc(C(F)(F)F)ccc3Cl)CC2)cc1F [Example 221, (S)-5-(4-((1-(2-chloro-5-(trifluoromethyl)benzyl)-4-fluoropiperidin-4-yl)methoxy)-5-cyclopropyl-2-fluorobenzoyl)-5-azaspiro[2.4]heptane-6-carboxylic acid] | 0.5 | 1.1 | – | – | 16 |
| O=C(O)[C@@H]1C[C@@H](F)CN1C(=O)c1cc(C2CC2)c(OCC2CCN(Cc3c(Cl)cccc3Cl)CC2)cc1F [Example 222, (2S,4R)-1-(5-cyclopropyl-4-((1-(2,6-dichlorobenzyl)piperidin-4-yl)methoxy)-2-fluorobenzoyl)-4-fluoropyrrolidine-2-carboxylic acid] | 0.013 | 0.21 | – | ≥ 30 | – |
| O=C(NC(C(=O)O)C(F)(F)F)c1cc(C2CC2)c(OCC23CC4CC(CC(C4)C2)C3)cc1F (stereo not drawn) [Example 223, 2-(4-(adamantan-1-ylmethoxy)-5-cyclopropyl-2-fluorobenzamido)-3,3,3-trifluoropropanoic acid] | 0.91 | 2.9 | 3.9 | – | – |
| C[C@H]1OCN(C(=O)c2cc(C3CC3)c(OCC3CCN(Cc4c(Cl)cccc4Cl)CC3)cc2F)[C@@H]1C(=O)O [Example 224, (4S,5R)-3-(5-cyclopropyl-4-((1-(2,6-dichlorobenzyl)piperidin-4-yl)methoxy)-2-fluorobenzoyl)-5-methyloxazolidine-4-carboxylic acid] | 0.014 | 0.1 | 22 | – | – |
| C[C@H]1OCN(C(=O)c2cc(C3CC3)c(OCC3CCN(C(c4cc(Cl)cc(Cl)c4)C(F)(F)F)CC3)cc2F)[C@@H]1C(=O)O (stereo partly drawn) [Example 226, (4S,5R)-3-(5-cyclopropyl-4-((1-(1-(3,5-dichlorophenyl)-2,2,2-trifluoroethyl)-piperidin-4-yl)methoxy)-2-fluorobenzoyl)-5-methyloxazolidine-4-carboxylic acid] | 0.012 | 0.13 | 6.1 | – | – |
| C[C@H]1OCN(C(=O)c2cc(C3CC3)c(OCC3CCN(Cc4cc(C(F)(F)F)cc(Cl)c4F)CC3)cc2F)[C@@H]1C(=O)O [Example 227, (4S,5R)-3-(4-((1-(3-chloro-2-fluoro-5-(trifluoromethyl)benzyl)piperidin-4-yl)methoxy)-5-cyclopropyl-2-fluorobenzoyl)-5-methyloxazolidine-4-carboxylic acid] | 0.029 | 0.065 | 16 | – | – |
| C[C@H]1OCN(C(=O)c2cc(C3CC3)c(OCC3CCN(Cc4cc(C(F)(F)F)ccc4Cl)CC3)cc2F)[C@@H]1C(=O)O [Example 228, (4S,5R)-3-(4-((1-(2-chloro-5-(trifluoromethyl)benzyl)piperidin-4-yl)methoxy)-5-cyclopropyl-2-fluorobenzoyl)-5-methyloxazolidine-4-carboxylic acid] | 0.017 | 0.087 | 25 | – | – |
| C[C@H]1OCN(C(=O)c2cc(C3CC3)c(OCC3(C)CN([C@H](c4ccccc4)c4cc(Cl)cc(Cl)c4)C3)cc2F)[C@@H]1C(=O)O [Example 229, (4S,5R)-3-(5-cyclopropyl-4-((1-((R)-(3,5-dichlorophenyl)(phenyl)methyl)-3-methylazetidin-3-yl)methoxy)-2-fluorobenzoyl)-5-methyloxazolidine-4-carboxylic acid] | 0.0069 | 0.27 | – | ≥ 30 | – |
| C[C@H]1[C@H](O)CN(C(=O)c2cc(C3CC3)c(OCC34CC5CC(CC(C5)C3)C4)cc2F)[C@@H]1C(=O)O [Example 230, (2S, 3R, 4S)-1-(4-(adamantan-1-ylmethoxy)-5-cyclopropyl-2-fluorobenzoyl)-4-hydroxy-3-methylpyrrolidine-2-carboxylic acid] | 0.021 | 0.032 | 11 | – | – |
| C[C@@H]1[C@H](O)CN(C(=O)c2cc(C3CC3)c(OCC34CC5CC(CC(C5)C3)C4)cc2F)[C@@H]1C(=O)O [Example 231, (2S,3S,4S)-1-(4-(adamantan-1-ylmethoxy)-5-cyclopropyl-2-fluorobenzoyl)-4-hydroxy-3-methylpyrrolidine-2-carboxylic acid] | 0.29 | 0.36 | 15 | – | – |
